In article PMC10622577, “Structural basis for stabilisation of the RAD51 nucleoprotein filament by BRCA2” (Nature Communications, 2023):

System: RAD51 D184A NPFs
Experiment: SPR of TR2 binding to RAD51 D184A NPFs
Parameters: species or system human
Conditions: n = 3
Description: We investigated further the effect of the acidic patch mutations on TR2 binding using surface plasmon resonance (SPR). We developed an SPR assay whereby increasing amounts of TR2 peptide were added to RAD51 NPFs that had been assembled on biotinylated DNA coupled to a streptavidin chip (Supplementary Fig. 3A, Supplementary Table 1). […] We used the same SPR assay to assess the effect of the mutations on the ability of BRC4 to disrupt an established filament (Supplementary Fig. 4A, Supplementary Table 1).
All SPR experiments were performed using a Biacore T200 instrument and an S-series SA (Streptavidin) sensor chip. A single chip was used to immobilise biotinylated single- and double-stranded DNA in buffer: 25 mM HEPES pH 7.4, 100 mM NaCl, 1 mM EDTA. ssDNA and dsDNA were immobilised in different channels to a signal of 120 RU and 250 RU, respectively. […]
For the BRCA2 TR2 titration series, blank-subtracted sensorgrams were used to extract the maximum response accumulated after each TR2 injection. TR2 response accumulation was corrected to account for differences in RAD51 filament formation between runs, by multiplying the maximum response by a scale factor calculated as the ratio between mean RAD51 filament accumulation on each DNA substrate and the mean RAD51 accumulated for each mutant for each triplicate. […]

DDQKNCKKRRALDFLSRLPLPPPVSPICTFVSPAAQKAFQPPRSCGTKY [TR2, BRCA2 TR2 peptide spanning amino acids 3260 to 3308]
TR2 binding by SPR relative to wild-type (Biacore T200, streptavidin chip, biotinylated ss- or dsDNA, CMA buffer pH 7.4, 1 μM RAD51, TR2 0.1-15 μM, 120 s): clear reduction in TR2 binding | impact of mutation on TR2 binding by SPR, ssDNA versus dsDNA (ssDNA compared with dsDNA): stronger for NPFs formed on ssDNA
